Assay results reported in patent publication US10231957B2, “Histone demethylase inhibitors” (CELGENE QUANTICEL RESEARCH, INC., priority 2014, dated 2019).

What follows are compounds tested on KYSE-150 esophageal carcinoma cell line (assay: In vitro cell-based assay: cellular proliferation via BrdU incorporation). Settings: Homo sapiens; KYSE-150 cells, BrdU incorporation after 168 hr compound incubation.
Procedure: Cell lines tested include the JMJD2C gene amplified cell line KYSE-150. This is a quantitative ELISA assay measuring DNA incorporation of BrdU during S-phase as a direct readout of cellular proliferation.
Assay Principle: This is a colorimetric immunoassay for the quantification of cell proliferation. Cells treated for 168 hours with test compounds are assayed for their ability to go through S-phase as a measure of their proliferative potential.
Assay Method: The human KYSE-150 (SMAD4 mut, TP53 mut) esophageal carcinoma cell line was seeded at 2,000 cells/well on a 96-well tissue culture treated plate. After an overnight incubation, cells were treated with compound in an […] dilution series with final concentrations ranging from 100 μM to 2 nM. Cells were then incubated in the presence of compound for 168 hr. After compound incubation the cells were assayed using a BrdU Cell Proliferation ELISA (Roche). The cells were first incubated with BrdU labeling reagent for 2 hr. After 2 hr, the BrdU incorporated cells were fixed and denatured, probed with an anti-BrdU-Peroxidase antibody for 1.5 hr and washed. Finally, a tetramethylbenzidine peroxidase substrate was added to each well for 15 min followed by a H2SO4 stop solution. The plate was read at 450 nm, and the raw optical density data was transferred into XLFit (IDBS) for IC50 calculation using the formula: fit=(D+((Vmax*(x^n))/((x^n)+(Km^n))))

**Q.** Which IC50 does the source give for CN(c1ccccc1)c1ccc2c(-c3cc4nccc(C(=O)O)c4[nH]3)n(C)nc2c1 [Example 11, 2-{2-Methyl-6-[methyl(phenyl)amino]-2H-indazol-3-yl}-1-H-pyrrolo[3,2-b]pyridine-7-carboxylic Acid] here?
**A.** ≤ 0.1 µM

**Q.** With Cn1nc(-c2cc3nccc(C(=O)O)c3[nH]2)c2ccc(F)cc21 [Example 16, 2-(6-Fluoro-1-methyl-1H-indazol-3-yl)-1H-pyrrolo[3,2-b]pyridine-7-carboxylic Acid] as the compound, how does the IC50 read?
**A.** > 10 µM

**Q.** How did the IC50 turn out when COC(=O)c1ccnc2cc(-c3c4cc(Cl)ccc4nn3CCN3CCCC3)[nH]c12 [Example 10d, Methyl 2-{5-chloro-2-[2-(pyrrolidin-1-yl)ethyl]-2H-indazol-3-yl}-1H-pyrrolo[3,2-b]pyridine-7-carboxylate] was run?
**A.** > 10 µM
